{
  "source": "patent US11173152B1",
  "about": "“Glutathione-coated nanoparticles for delivery of MKT-077 across the blood-brain barrier” (UNIVERSITY OF SOUTH FLORIDA, priority 2015, dated 2021)",
  "key": {"[1]": {"conditions": "blockage by the BBB; cited from earlier work"}, "[2]": {"conditions": "rat, in vivo; cited from earlier work"}, "[3]": {"conditions": "human subjects; cited from earlier work"}, "[4]": {"test_system": "TRANSWELL in vitro BBB model, co-culture of RBE4 (rat brain endothelial) cells with C6 (rat astrocytoma) cells", "test": "In vitro BBB permeation model", "format": "in vitro ADME", "conditions": "end of the 48-hour study period, 10 μM equivalent, n=4", "protocol": "A […] in vitro BBB model was established to study the BBB permeation of MKT NPs and MKT Glu-NPs compared to drug solution according to a method previously described by the current inventors in [18]. […] permeable inserts were treated with 0.1% rat tail collagen I on the apical and basolateral sides. After 24 hours, C6 (rat astrocytoma) cells were seeded onto the basolateral side of the permeable insert (5×10^4 cells). After 48 hours, RBE4 (rat brain endothelial) cells were seeded onto the apical side of the permeable (5×10^4 cells). Cells were bathed in 1:1 mixture of Ham's F10:MEM media supplemented with 10% FBS with 1.5 mL in the basolateral chamber and 0.5 mL in the apical chamber, and were allowed to incubate (37° C. and 5% CO2) for 24 hours until confluence was established.\nAfter 24 hours, media was replaced with a 1:1 mixture of Ham's F10:MEM media supplemented with 1% FBS (experimental media), and cells were treated with 10 μM equivalent treatments of MKT aqueous drug solution, MKT NPs, and MKT Glu-NPs. 1 mL media samples were aliquoted from the basolateral chamber at predetermined intervals over a 48-hour period to investigate the trans-BBB permeation of the treatments. Aliquots were read by UV spectroscopy (at wavelength of 492 nm (λmax) and compared to UV absorbance of standard dilutions of MKT drug in experimental media (r^2=0.9990)."}, "[5]": {"test_system": "human tau in HeLa cells stably expressing human tau", "test": "Effect on tau level in a cellular AD model (Western blot)", "format": "cell-based", "conditions": "3 μM, 24 hours, GAPDH normalization", "protocol": "AD model: HeLa cells stably expressing human tau were maintained in OPTIMEM media as described earlier. Treatment with nanoparticles or control were performed for 24 hours and samples analyzed by western blotting, as described earlier.\nIn order to determine whether the newly formulated MKT-NPs are active, a cellular AD HeLa cell model that stably expresses human tau was used. Cells were treated with 3 μM of MKT uncoated NPs or MKT Glu-NPS or drug in solution or various controls for 24 hours."}, "[6]": {"test": "In vitro drug release (dialysis membrane, PBS pH 7.4)", "format": "physicochemical", "conditions": "within the initial 4 hours; PBS pH 7.4, 37° C.", "protocol": "The drug release profile of MKT from MKT NPs and MKT Glu-NPs was investigated using a method previously described by the current inventors in [14]. 0.05 mg equivalent of MKT aqueous solution, MKT NPs, and MKT Glu-NPs were placed in dialysis membrane tubing ([…]) and placed in 20 mL of release medium comprised of PBS (pH 7.4) stirring at 100 rpm and 37° C. 1 mL aliquots were removed at predetermined intervals over 7 days and analyzed by UV spectroscopy at wavelength of 492 nm (λmax) and compared to UV absorbance of standard aqueous dilutions of MKT drug (r^2=0.9943)."}, "[7]": {"conditions": "dog, in vivo; cited from earlier work"}},
  "note": "Read-outs that look alike come from different tables or passages of the source.",
  "data": [
    {"smiles": "CCn1c(=O)/c(=C2\\Sc3ccccc3N2C)s/c1=C\\c1cccc[n+]1CC.[Cl-]", "note": "[MKT-077]", "values": [
      {"measurement": "brain permeation", "setting": "[1]", "result": "limited-to-no brain permeation"},
      {"measurement": "renal toxicity", "setting": "[2]", "result": "irreversible renal toxicity"},
      {"measurement": "renal toxicity", "setting": "[3]", "result": "irreversible renal toxicity"},
      {"measurement": "drug permeated through the BBB model", "setting": "[4]", "result": 20, "unit": "%"},
      {"measurement": "reduction in tau levels", "setting": "[5]", "result": "greater and comparable reduction in tau levels"},
      {"measurement": "drug released", "setting": "[6]", "result": "Approximately 100%"},
      {"measurement": "renal toxicity", "setting": "[7]", "result": "irreversible renal toxicity"}
    ]}
  ]
}
